Assay results: the supplement of paper PMC11208160

Test: recombinant UMI read abundance after kanamycin selection (control-corrected) (log10(CPM+1)); higher = more efficient recombination; extreme values may be limits of the assay; sequences stand for … in AGTGCAGAGAAAATCGGCCAGTTTTCTCTGCCTGCAGTCCGCATGCCGTGGGACCCCTTGGGTTCTAACCTGTTGCCTAGATTTATGCAGCGGACTGCCTTTCTCCCAAAGTGATAAACCGG…AGGTTGGTTTCACT; site = the 11-nt donor
Summary of the method: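 For the IS621 bridge recombinase, a pooled Escherichia coli screen tested donor and donor-binding-loop pairs. Cells received the pair library together with a target plasmid encoding a fixed target and T7-inducible recombinase, then went onto IPTG (0.07 mM) plus kanamycin or unselected plates in duplicate. After PCR across the donor–target junction and sequencing, recombinant UMI counts were normalized to CPM, averaged, and scaled by control-derived factors. Each value is given as log10(CPM+1).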

Row | Sequence | recombinant UMI read abundance (log10)
1 | TAGGAATCATGGACCGGTTTTCCCGGTAATCCGTATTTGCG (site TAAGAATCTCG) | 2.05
2 | CCCCACACATGGACCGGTTTTCCCGGTAATCCGTATTTGCA (site CCCCACACTTT) | 0.16
3 | CTGCTACCATGGACCGGTTTTCCCGGTAATCCGTATTTGCT (site CTGATACCTAG) | 0
4 | CTATTATCATGGACCGGTTTTCCCGGTAATCCGTATTTGAA (site CTATTATCTTT) | 1.79
5 | TGCTAGGCATGGACCGGTTTTCCCGGTAATCCGTATTTGGT (site TGCTAGGCTAT) | 0.0134
6 | TGTACACCATGGACCGGTTTTCCCGGTAATCCGTATTTGGC (site TGTACACCTGG) | 0
7 | CTACTAACATGGACCGGTTTTCCCGGTAATCCGTATTTGTA (site CTACTAACTTA) | 2.03
8 | GTATGCACATGGACCGGTTTTCCCGGTAATCCGTATTTGCA (site GTATGCACTTT) | 0.427
9 | TGTTCCCCATGGACCGGTTTTCCCGGTAATCCGTATTTGTA (site TGTTCCCCTTT) | 0.0256
10 | AGCCTAGCATGGACCGGTTTTCCCGGTAATCCGTATTTGTC (site AGCCTAGCTAA) | 0.199
11 | AGAAACGCATGGACCGGTTTTCCCGGTAATCCGTATTTGCT (site AGAAAGGCTAG) | 0
12 | GGATAGACATGGACCGGTTTTCCCGGTAATCCGTATTTGAC (site GGATAGACTGT) | 3.21
13 | CCAGCAGCATGGACCGGTTTTCCCGGTAATCCGTATTTGCT (site CCAGCAGCTAG) | 0.104
14 | CAAGCATCATGGACCGGTTTTCCCGGTAATCCGTATTTGCT (site CAAGCACCTAG) | 0
15 | AGGTGCGCATGGACCGGTTTTCCCGGTAATCCGTATTTGTA (site AGGTGCGCTTA) | 1.81
16 | CGATCGTCATGGACCGGTTTTCCCGGTAATCCGTATTTGCT (site CGATCATCTAG) | 2.15
17 | AGAAACGCATGGACCGGTTTTCCCGGTAATCCGTATTTGCT (site AGAAATGCTAG) | 0
18 | ATGTAGGCATGGACCGGTTTTCCCGGTAATCCGTATTTGGC (site TTGTAGGCTGC) | 1.95
19 | CGCTCATCATGGACCGGTTTTCCCGGTAATCCGTATTTGCT (site CGTTCATCTAG) | 1.35
20 | CAAGCTGCATGGACCGGTTTTCCCGGTAATCCGTATTTGCT (site CAAGCTGCTAG) | 2.42
21 | CGGCCGGCATGGACCGGTTTTCCCGGTAATCCGTATTTGGC (site GGGCCGGCTGC) | 0
22 | CGATCCTCATGGACCGGTTTTCCCGGTAATCCGTATTTGCG (site CGATCATCTAG) | 0
23 | ACACTTACATGGACCGGTTTTCCCGGTAATCCGTATTTGTT (site ACACTTACTAA) | 0.147
24 | TACCCACCATGGACCGGTTTTCCCGGTAATCCGTATTTGAC (site TACCCACCTGT) | 0
25 | ACAGTATCATGGACCGGTTTTCCCGGTAATCCGTATTTGAA (site ACAGTATCTTC) | 1.73

Row | Sequence | recombinant UMI read abundance (log10)
26 | GCCACGCCATGGACCGGTTTTCCCGGTAATCCGTATTTGTA (site GCCACGTCTTA) | 1.45
27 | GAGCCTGCATGGACCGGTTTTCCCGGTAATCCGTATTTGGT (site GAGCCTGCTAC) | 0.482
28 | GTATGCACATGGACCGGTTTTCCCGGTAATCCGTATTTGTA (site CTATGCACTTA) | 0.712
29 | CGGGAGACATGGACCGGTTTTCCCGGTAATCCGTATTTGCC (site CGGGAGACTGG) | 1.58
30 | ACCGAGGCATGGACCGGTTTTCCCGGTAATCCGTATTTGGG (site ACCGAGGCTCC) | 0.157
31 | GTTAGAACATGGACCGGTTTTCCCGGTAATCCGTATTTGAC (site GTTAGAACTGG) | 0
32 | ACCCACCCATGGACCGGTTTTCCCGGTAATCCGTATTTGAG (site ACCCACCCTCT) | 0.00795
33 | AGAAAGGCATGGACCGGTTTTCCCGGTAATCCGTATTTGCT (site AGAAATGCTAG) | 0
34 | CAAGCAGCATGGACCGGTTTTCCCGGTAATCCGTATTTGCC (site CAAGCAGCTTG) | 1.94
35 | ATGAATACATGGACCGGTTTTCCCGGTAATCCGTATTTGCA (site ATGAATACTTG) | 2.21
36 | AGTTCAGCATGGACCGGTTTTCCCGGTAATCCGTATTTGGC (site AGTTCAGCTGC) | 0.972
37 | GTATGCACATGGACCGGTTTTCCCGGTAATCCGTATTTGTA (site GTATGCACTCA) | 0.0356
38 | ACTAGCGCATGGACCGGTTTTCCCGGTAATCCGTATTTGGT (site ACTAGAGCTAC) | 0.428
39 | TGCTAAGCATGGACCGGTTTTCCCGGTAATCCGTATTTGGT (site TGCTATGCTAC) | 0.0152
40 | TACGGTGCATGGACCGGTTTTCCCGGTAATCCGTATTTGAC (site TACGGTGCTGT) | 1.15
41 | GGAGCCCCATGGACCGGTTTTCCCGGTAATCCGTATTTGGG (site GGAGCCCCTCC) | 0.00903
42 | ACTAGAACATGGACCGGTTTTCCCGGTAATCCGTATTTGAG (site CCTAGAACTCT) | 1.33
43 | AGCCTTTCATGGACCGGTTTTCCCGGTAATCCGTATTTGAT (site AGCCTTTCTCT) | 0
44 | CCAGGTACATGGACCGGTTTTCCCGGTAATCCGTATTTGAT (site CCAGGTGCTAT) | 1.2
45 | AAGCACGCATGGACCGGTTTTCCCGGTAATCCGTATTTGGG (site ACGCACGCTCC) | 0.0214
46 | ACATCCTCATGGACCGGTTTTCCCGGTAATCCGTATTTGTC (site ACATCCTCTGA) | 2.8
47 | ATCTATACATGGACCGGTTTTCCCGGTAATCCGTATTTGTC (site ATCTATACTGG) | 0
48 | CATGTAACATGGACCGGTTTTCCCGGTAATCCGTATTTGCT (site AATGTAACTAG) | 0.624
49 | CACCGCCCATGGACCGGTTTTCCCGGTAATCCGTATTTGTT (site CACCGCCCTAA) | 0.033
50 | ATGAAGACATGGACCGGTTTTCCCGGTAATCCGTATTTGCT (site ATGAAGACTAG) | 2.82

Row | Sequence | recombinant UMI read abundance (log10)
51 | AATGTCACATGGACCGGTTTTCCCGGTAATCCGTATTTGCT (site AATGTCACTAG) | 2.41
52 | CATTCCTCATGGACCGGTTTTCCCGGTAATCCGTATTTGCC (site CATTCCTCTGG) | 1.47
53 | AGGCCGACATGGACCGGTTTTCCCGGTAATCCGTATTTGCA (site AGGAAGACTTG) | 0
54 | AGGTTCCCATGGACCGGTTTTCCCGGTAATCCGTATTTGGG (site AGGTTCCCTCG) | 0.0155
55 | ATGCAGACATGGACCGGTTTTCCCGGTAATCCGTATTTGCA (site AGGAAGACTTG) | 0
56 | TAGGAATCATGGACCGGTTTTCCCGGTAATCCGTATTTGCG (site TAGGAATCTAG) | 1.42
57 | CCCCACGCATGGACCGGTTTTCCCGGTAATCCGTATTTGTA (site CCCCACGCTTA) | 0.81
58 | GGGGCACCATGGACCGGTTTTCCCGGTAATCCGTATTTGCA (site GGGGCACCTTC) | 0.0181
59 | CACTCTACATGGACCGGTTTTCCCGGTAATCCGTATTTGTA (site CACTCTACTTA) | 0.722
60 | CTCGCTACATGGACCGGTTTTCCCGGTAATCCGTATTTGAG (site CTCACTACTCT) | 0.085
61 | CCAAATCCATGGACCGGTTTTCCCGGTAATCCGTATTTGTT (site CGGAATCCTAA) | 0
62 | GTTTATCCATGGACCGGTTTTCCCGGTAATCCGTATTTGCT (site GATTATCCTAG) | 0
63 | ACCAACCCATGGACCGGTTTTCCCGGTAATCCGTATTTGCG (site ACCAACCCTCG) | 0
64 | AGAAAGGCATGGACCGGTTTTCCCGGTAATCCGTATTTGCT (site AGAAACGCTAG) | 0
65 | ACTAGAACATGGACCGGTTTTCCCGGTAATCCGTATTTGAG (site ACTAGAACTCC) | 0.0223
66 | ATTGATACATGGACCGGTTTTCCCGGTAATCCGTATTTGCG (site CCACTCCCTGT) | 0
67 | CCGCTTCCATGGACCGGTTTTCCCGGTAATCCGTATTTGTC (site CCGCTTCCTGA) | 0
68 | TAAAGTCCATGGACCGGTTTTCCCGGTAATCCGTATTTGGA (site TAAAGTCCTTT) | 0.978
69 | CAAGAAGCATGGACCGGTTTTCCCGGTAATCCGTATTTGCT (site CAAGGAGCTAG) | 1.87
70 | TTGGTATCATGGACCGGTTTTCCCGGTAATCCGTATTTGTG (site TTGGTATCTCA) | 1.82
71 | TGCCTTTCATGGACCGGTTTTCCCGGTAATCCGTATTTGAC (site CGCCTTTCTGT) | 0
72 | CCTAAAGCATGGACCGGTTTTCCCGGTAATCCGTATTTGTT (site CCTAAAGCTAA) | 0.0032
73 | ATGTACGCATGGACCGGTTTTCCCGGTAATCCGTATTTGGC (site ATGTATGCTGC) | 0
74 | AGATGCGCATGGACCGGTTTTCCCGGTAATCCGTATTTGAG (site AGATGCGCTCT) | 1.86
75 | GGCATTGCATGGACCGGTTTTCCCGGTAATCCGTATTTGGT (site GGCATTGCTAC) | 1.48
